Patent publication US12145915B1 (priority 2023, dated 2024)
In brackets after ≈: the same amount, converted by molar mass.

Legend:
[1] = test system: MDR strain of Mycobacterium tuberculosis; assay: microbe, parasite or virus in culture; assay type: cell-based; conditions: read-out: Anti-tubercular activity against Mycobacterium tuberculosis (μg/mL) MDR (MIC)
[2] = test system: XDR strain of Mycobacterium tuberculosis; assay: microbe, parasite or virus in culture; assay type: cell-based; conditions: read-out: Anti-tubercular activity against Mycobacterium tuberculosis (μg/mL) XDR (MIC)

## Cc1nc(-c2ccc(OCC(C)C)c(C#N)c2)sc1C(=O)N/N=C/c1ccc(F)c(Oc2ccccc2)c1 [KNV-TZL1, (E)-2-(3-Cyano-4-isobutoxyphenyl)-N-(4-fluoro-3-phenoxybenzylidene)-4-methylthiazole-5-carbohydrazide]
[1]
  MIC: 32 µg/mL (≈ 60.5 µM)
[2]
  MIC: 128 µg/mL (≈ 242 µM)

## COc1cc(/C=N/NC(=O)c2sc(-c3ccc(OCC(C)C)c(C#N)c3)nc2C)ccc1O [KNV-TZL2, (E)-2-(3-Cyano-4-isobutoxyphenyl)-N-(4-hydroxy-3-methoxybenzylidene)-4-methylthiazole-5-carbohydrazide]
[1]
  MIC: 64 µg/mL (≈ 138 µM)
[2]
  MIC: 64 µg/mL (≈ 138 µM)
